Experimental data reported in patent US20220062448A1 (priority 2015, published 2022).

Tested on: CD206+macrophages (MOs)
Assay: CD206 targeting assay in monocyte-derived CD206+ macrophages (uptake, killing, apoptosis)
Assay type: cell-based
Conditions: FIG. 17
Method: CD206 targeting assays were conducted using both in vitro monocyte-derived CD206+macrophages (MOs) and ex vivo fresh Kaposi Sarcoma (KS) tumor tissue (provided by the AIDS and Cancer Specimen Resource [ACSR]). Tilmanocept-Cy 3 with/without a chemo-therapeutic agent (CTA) attached (tilmanocept-Cy3-CTA or tilmanocept-Cy3) interactions with cellular and tumor targets were tracked by flow cytometry and immuno-histochemistry to evaluate Cy3-tilmanocept uptake and targeting capability for delivery of drug into KS tumor cells and TAMs.

SMILES: COc1cccc2c1C(=O)c1c(O)c3c(c(O)c1C2=O)C[C@@](O)(C(=O)CO)C[C@@H]3O[C@H]1C[C@H](N)[C@H](O)[C@H](C)O1 [Docorubicin, doxorubicin]
- toxicity to CD206 expressing macrophages (Annexin levels): no toxicity
- effect on cells (apoptosis, cell loss) (compared with tilmanocept-Cy3-CTA): less effect
